Source: patent publication US10093642B2, “Multitarget hedgehog pathway inhibitors and uses thereof” (UNIVERSITA' DEGLI STUDI DI SIENA, priority 2013, dated 2018)

Legend:
[1] = system: HepG2 hepatocellular carcinoma cells; assay: Effect on Hh-independent HepG2 cells; format: cell-based
GST = GST (Schistosoma japonicum, UniProt P08515); assay: NMR relaxation speed of Glabrescione B protons in presence of GST alone; format: binding; conditions: 0.412 mM
human MB D283 cells = assay: Proliferation (BrdU), viability (MTS) and cell death (Trypan Blue) of MB D283 cells; format: cell-based; conditions: 48 h
Procedure: FIG. 11. (A) Human MB D283 cells were treated with different concentrations of Glabrescione B as indicated for 48 h. Inhibition of cell proliferation was measured as percentage of BrdU incorporation in comparison to DMSO (0.5%, vehicle) treated sample. (B) Human MB D283 cells were treated for 48 h with increasing concentrations of Glabrescione B as indicated. After 48 h, CellTiter 96® Aqueous One Solution Reagent was added to each well according to the manufacturer's instructions. After one hour in culture the cell viability (expressed in % viability) was determined by measuring the absorbance at 490 nm comparing treatment with DMSO (0.5%, vehicle) control.
FIG. 12. […]
A biological assay was performed in cerebellar neural progenitors cells obtained from 4-days-old mice, when they are actively proliferating under Sonic Hedgehog (Shh) stimulus. As expected, treatment of these cells with Shh increased the proliferation rate, as evaluated by BrdU-incorporation assay. […]
More important, Glabrescione B was able to promote cell death of D283 MB cells, as reported by Trypan Blue count assay (FIG. 12). […] Cell death was measured by Trypan Blue (Sigma, cat. #T8154) exclusion counting at least 200 cells, in duplicate samples. All described assays were evaluated at 48 h after treatment.

[2] = system: Hh signaling in mouse cerebellar progenitors; assay: Hh target mRNA in cerebellar progenitors of 6-day old mice after s.c. injection; format: in vivo, CD1 mice; conditions: 100 μmol/Kg s.c. for 2 days
Description: To assess the in vivo activity of Glabrescione B, we first tested its ability to suppress Hh signaling in 6-day old mouse cerebellar progenitors, considered the cell of origin of MB. 6-day old CD1 mice were randomly divided into two groups (n=6) and injected s.c. with solvent only (2-hydroxypropyl-β-cyclodextrin:ethanol, 3:1) or Glabrescione B in solvent (100 μmol/Kg) for 2 days (2-hydroxypropyl-β-cyclodextrin was purchased from Sigma Aldrich, St. Louis, Mo., USA). Cerebella were collected and mRNA levels were determined by qRT-PCR.

[3] = system: Cancer stem cells (CSCs) isolated from murine Ptch+/− MB; assay: Neurosphere forming assay (self-renewal of MB CSCs); format: cell-based; conditions: seven days of treatment; KAAD 1 μM as comparator
Procedure: FIG. 14. […] After seven days of treatment the number of secondary neurospheres derived from a known number of single cells was counted. The self-renewal CSCs capability is expressed as percentage of neurospheres forming cells.
Hh activity preferentially associates to stemness features. For this reason, the Hh pathway antagonist Glabrescione B has also been investigated for its ability to modulate the behavior of MB cancer stem cells (CSCs).
Another experiment was carried out to determine the ability of Glabrescione B to suppress MB CSCs self-renewal. To this aim neurospheres derived from murine Ptch^+/− MB were treated with Glabrescione B at different concentrations and the percentage of neurospheres-forming cells was measured. For the neurosphere forming assay, cells were plated at clonal density (1-2 cells/mm2) into 96-well plates and cultured in selective medium as described above.
The results shown in FIG. 14 indicate that Glabrescione B has an inhibitory effect on self-renewal of cancer stem cells.

SMO receptor = molecular target: T1, SMO receptor (UniProt P56726); assay: Displacement assay with Bodipy-cyclopamine in HEK293 cells transfected with SMO; conditions: BC 5 nM, 2 h at 37° C., read-out: IC50 of blocking Bodipy-cyclopamine (BC) binding to SMO
T1 construct: fused on or other part: Possibly a C-terminal Myc3 tag, if the construct is Smo-Myc3 of Chen et al. 2002
Procedure: (A) HEK293 cells were transiently transfected with pcDNA-SMO vector and incubated with Bodipy-cyclopamine (BC 5 nM) alone (control) or in the presence of increasing concentrations of KAAD (Cyclopamine-KAAD, Smoothened antagonist) or increasing concentrations of Glabrescione B, as indicated. Bodipy-cyclopamine binding (BC binding) (green) is visualized using fluorescence microscopy in a representative field. (B) The concentration-response curve for Glabrescione B was obtained by quantification of the Bodipy-cyclopamine fluorescence in three photographs for each coverslip. The values are expressed as a percentage of the fluorescence detected in control HEK293 cells incubated with Bodipy-cyclopamine alone. The data shown are the means of triplicates derived from a representative experiment of three. Error bars indicate SD (standard deviation). […]
To investigate the binding properties of Glabrescione B to SMO receptor, a competition assay was carried out. In this experiment it was analyzed whether Glabrescione B could compete with Bodipy-cyclopamine (BC; 5 nM USBiological, cat. # B2527), a fluorescent derivative of cyclopamine, which is known to interact with the SMO receptor at the level of its heptahelical bundle. […] Cells were analyzed with a Carl Zeiss microscope (Axio Observer ZI). […] Bodipy-cyclopamine (green) and DAPI (blue) signals were analyzed in 3-4 representative fields for coverslips.

[4] = system: ASZ001 basal cell carcinoma cells; assay: ASZ001 BCC cell growth, cell death and Gli1 mRNA; format: cell-based; conditions: in vitro treatment
Procedure: FIG. 15. Inhibition of Gli-dependent BCC tumor cell growth. ASZ001 BCC cells were treated with Glabrescione B (GlaB) 5 μM or DMSO only (A) or with Glabrescione B 1, 5 and 10 μM (GlaB) or DMSO only (B). After the indicated times, a trypan blue count was performed to determine the growth rate (A) or the percentage of cell death (B). (C) Gli1 mRNA expression levels were determined by qRT-PCR after treatment of ASZ001 BCC cells with Glabrescione B (GlaB) or DMSO only for the indicated times. Results are expressed in arbitrary units as relative quantification normalized with endogenous control β2-microglobulin and HPRT. […] Error bars indicate SD. *P<0.05 vs DMSO.
Total RNA was isolated with Trizol (Invitrogen, Eugene, Or, USA) and reverse transcribed with Superscript II reverse transcriptase and random hexamers (Invitrogen, Eugene, Or, USA). Quantitative real-time PCR (qRT-PCR) analysis of Gli1, Gli2, Ptch1, Ptch2, Nanog, Oct-4, Cyclin D1, Cyclin D2, Nmyc, HIP1, Sfrp1, Bmp2, IGF2, β-2 microglobulin, HPRT, mRNA expression was performed on each cDNA sample using the ABI Prism 7900HT Sequence Detection System employing Assay-on-Demand Reagents (Applied Biosystems, Foster City, Calif., USA). […]

Sequence of GST (P08515 whole entry): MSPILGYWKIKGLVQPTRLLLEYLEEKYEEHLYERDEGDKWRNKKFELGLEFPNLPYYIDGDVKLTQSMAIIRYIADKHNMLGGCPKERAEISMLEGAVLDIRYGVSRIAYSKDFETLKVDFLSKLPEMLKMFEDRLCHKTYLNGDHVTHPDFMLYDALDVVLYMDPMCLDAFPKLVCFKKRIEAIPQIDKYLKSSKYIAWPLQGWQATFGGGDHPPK

- Normalized relaxation speed ΔR/Rf, GlaB:GST 1:150 (GST; proton 1): 0.024
- Normalized relaxation speed ΔR/Rf, GlaB:GST 1:150 (GST; proton 2′): 0.058
- Normalized relaxation speed ΔR/Rf, GlaB:GST 1:150 (GST; proton 3): 0.100
- Normalized relaxation speed ΔR/Rf, GlaB:GST 1:150 (GST; proton 4′): 0
- Normalized relaxation speed ΔR/Rf, GlaB:GST 1:150 (GST; proton 8): 0
- Normalized relaxation speed ΔR/Rf, GlaB:GST 1:150 (GST; proton 12): 0.034
- Normalized relaxation speed ΔR/Rf, GlaB:GST 1:150 (GST; proton 15): 0.138
- Normalized relaxation speed ΔR/Rf, GlaB:GST 1:150 (GST; proton 19): 0
- IC50 (SMO receptor): 1 µM
SMILES: COc1cc(OC)c2c(=O)c(-c3ccc(OCC=C(C)C)c(OCC=C(C)C)c3)coc2c1 [Glabrescione B, 3-(3′,4′-bis(3-methylbut-2-enyloxy)phenyl)-5,7-dimethoxy-4H-chromen-4-one]
- effect on HepG2 cells [1]: no effect
- percentage of cell death (Trypan Blue) (human MB D283 cells): increase of the percentage of cell death, in a dose-dependent manner
- growth rate inhibition (human MB D283 cells; dose range of 1-50 μM, MTS and BrdU incorporation): 70-95%
- cerebellar levels of Hh target genes (mRNA) [2]: reduced significantly
- MB CSCs self-renewal (percentage of neurospheres-forming cells) [3]: suppressive effect on MB CSCs self-renewal
- BCC cell proliferation [4]: impaired
- Gli1 mRNA in BCC cells ([4]; qRT-PCR): suppression of Gli1 mRNA
